Test results reported in US6649628B1, “N-[2-hydroxy-3-(1-piperidinyl)propoxy]pyridine-1-oxide-3-carboximidoyl chloride and its use in the treatment of insulin resistance” (Biorex Kutato es Fejleszto RT, priority 1999, dated 2003).
Marks after values point to notes of the source that are not given here.

Experiments:
Format in all cases: in vivo, rat
STZ diabetic Wistar rats = assay: Preliminary test: N-oxide derivatives of bimoclomol on motor and sensor nerve conduction velocity deficit
Procedure: In a preliminary test the effectiveness of the three N-oxide derivatives of bimoclomol on motor and sensor neuropathy in STZ diabetic Wistar rats were studied. The effectiveness of the three bimoclomol N-oxide derivatives in improving the peripheral motor and sensor nerve conduction velocity deficit caused by streptozotocine-induced diabetes was determined with use of the method described in detail in Experiment 2.
(§1) (Graphpad Instat, San Diego, Calif.).

[1] = system: obese, insulin resistant, hyperinsulinaemic Zucker fa/fa rats; assay: Experiment 1: carbohydrate metabolism (fasting glucose/insulin, ip glucose tolerance test) after 2-month treatment
Procedure: In the experiments so-called Zucker fa/fa rats (Charles River Laboratories Inc.) were used. In […] animals, obesity, insulin resistance, high blood insulin level, impaired glucose tolerance and hypertriglyceridaemia result from hypothalamic leptin receptor mutation. Due to the above characteristics, this is an accepted model of early type 2 diabetes.
The animals were placed in individual metabolic cages for 24 hours at the beginning of the study, and after 1 or 2 months of treatment for 24 hours of urine collection.
The animals were given either the test substances or physiological saline solution by gavage for control once a day between weeks 14-22.
Biochemical parameters of the blood and the urine were measured by a Kodak Ectachem 700 automatic analyzer. The total protein level of the urine was determined spectrophotometrically with the use of Bradford staining (Hitachi U-3200) at 595 nm. The insulin concentration of the serum was determined by the RIA method, using rat anti-insulin antibodies.
Systolic, diastolic blood pressure and heart rate were measured weekly on the tails of the rats (so-called tail cuff method) by a Letica 200 automatic analyzer. After two months of treatment, the level of glucose tolerance was determined by the intraperitoneal glucose tolerance test (2 g/kg ip.).

STZ-diabetic Wistar rats [2] = assay: Experiment 2: peripheral neuropathy, nerve conduction velocity after 1-month treatment
Text: as §1

STZ-diabetic Wistar rats [3] = assay: Experiment 5: urinary protein loss caused by diabetic nephropathy after 1-month treatment
Procedure: For the 24-hour period of urine collection, the animals were placed in individual metabolic cages. During this period they were given water ad libitum but no food. The latter measure was necessary to prevent possible contamination by the protein content of the food. Urine was collected in calibrated glass containers, in which Thymol crystal (Reanal 3135-1-08-38) was placed to prevent bacterial contamination.
Before measurement, the urine samples were centrifuged (2500 rpm) and filtered through a paper filter (Whatmann 1). If necessary, they were stored at −20° C. until measurement.
The total protein content of the urine was determined by the Bradford staining method (Sigma B-6916, St. Louis, Mo.), and color intensity was detected by spectrophotometry (Hitachi-U-3200).

STZ-diabetic Wistar rats [4] = assay: Experiment 3: diabetic autonomous neuropathy after 1 month of treatment; details: daily 20 mg/kg single dose
Procedure: The experiments were performed under anesthesia achieved by administering 60 mg/kg ip. pentobarbital sodium (Nembutal, Sanofi, Phylaxia). After this, an intratracheal tube or polyethylene canula was inserted into the fermoral artery and vein. The arterial catheter was connected to a pressure transducer for the simultaneous measurement of systolic and diastolic blood pressure (online automatic measuring and forwarding system, with a Haemosys computer program). After 20 minutes of equillibration period, the following substances were administered intravenously: Noradrenalin, 5 μg/kg iv.—Isoproterenol 0.4 μg/kg iv.—N.vagus stimulation (2 V, duration: 500 μsec, delay: 1 msec). The effects of the substances were monitored for 10 minutes.

STZ-diabetic Wistar rats [5] = assay: Experiment 4: histological alterations of early diabetic retinopathy after 1 month of treatment; details: 1 month
Procedure: Photographs and slide positives were prepared of representative samples.
The given value for negative cases was 0.1. A Box and Whisker plot graph was also prepared.

[6] = 20 mg/kg p.os daily, 2-month treatment
[7] = intraperitoneal glucose tolerance test
[8] = ip glucose tolerance test 2 g/kg, AUC 0-60 minutes, 20 mg/kg p.os daily, 2-month treatment
[9] = 20 mg/kg p.os once a day, 1 month
[10] = 1 month, isoproterenol 0.4 μg/kg iv.

## [O-][n+]1cccc(C(Cl)=NOCC(O)CN2CCCCC2)c1 (stereo not shown) [N-[2-hydroxy-3-(1-piperidinyl)-1-propoxy]-pyridine-1-oxide-3-carboximidoyl chloride]
STZ diabetic Wistar rats; 5 mg/kg
  Improvement of nerve conduction velocity (%) motor (MNCV): 66,5%
  Improvement of nerve conduction velocity (%) sensor (SNCV): 63,4%
STZ diabetic Wistar rats; N-oxide derivatives 5 mg/kg vs bimoclomol 20 mg/kg
  effect on the motor and sensor neuropathy compared with bimoclomol: equivalent with bimoclomol

## O=C(O)/C=C\C(=O)O.OC(CON=C(Cl)c1cccnc1)CN1CCCCC1 (racemic) [bimoclomol, maleate of O-(3-piperidino-2-hydroxy-1-propyl)-3-pyridyne hydroxymic acid-chloride, reference compound]
[1]; 20 mg/kg p.os daily
  effect on fasting blood glucose: significantly reduced
  effect on fasting insulin concentration: did not effect
[1]; [6]
  Fasting Blood Glucose (mean ± SE): 8.179 ± 0.316 mmol/L
  Fasting Insulin (mean ± SE): 29.362 ± 9.211 ng/mL
[1]; [7]
  effect on AUC of insulin: had no effect
  effect on area under the blood glucose curve (AUC): neither bimoclomol, nor Compound A effected
[1]; [8]
  Blood Glucose (AUC) (mean ± SE): 1286.86 ± 131.59
  Insulin (AUC) (mean ± SE): 2337.71 ± 590.49
[1]; summary of Experiment 1
  effect on peripheral insulin resistance: does not
STZ-diabetic Wistar rats [2]; [9]
  MNCV: 57.4 ± 0.2 m/s
  MNCV improvement: 79.7%
  SNCV: 58.5 ± 0.6 m/s
  SNCV improvement: 77.9%
STZ-diabetic Wistar rats [2]; bimoclomol 20 mg/kg, Compound A 5 mg/kg once a day
  effect on motor (MNCV) and sensor (SNCV) nerve conduction velocities: significantly improved
STZ-diabetic Wistar rats [3]; 20 mg/kg daily, 1 month, series 1
  24-hour Urinary Protein Loss Mean ± SE: 3.66 ± 1.39 mg/24 h
STZ-diabetic Wistar rats [3]; Bimoclomol 20 mg/kg, Compound-A 10 mg/kg, (+) enantiomer 5 mg/kg daily
  effect on STZ-diabetes-induced urinary protein loss: significantly reduced
STZ-diabetic Wistar rats [4]
  effect on pathological deviations resulting from autonomous neuropathy: significantly reduced
STZ-diabetic Wistar rats [4]; 1 month
  Increased negative chronotropic effect on vagus stimulation: ↑ (corrects)
  Reduced hypotension on vagus stimulation: ↑ (corrects)
  Systemic arterial hypotension (deviation due to diabetes): ↑ (corrects)
  Weight loss (deviation due to diabetes): ↑ (corrects)
STZ-diabetic Wistar rats [4]; [10]
  Reduced IS induced positive chronotropic effect: ↑ (corrects)
  Reduced IS induced systemic arterial hypotension: ↑ (corrects)
STZ-diabetic Wistar rats [4]; 1 month, noradrenalin 5 μg/kg iv.
  Reduced NA induced systemic arterial pressure response: ↑ (corrects)
STZ-diabetic Wistar rats [5]; 20 mg/kg daily
  Score values Improvement %: 61.3%
  Score values Mean ± SE (retinopathy histology): 5.185 ± 1.019
STZ-diabetic Wistar rats [5]; Compound A 5 mg/kg, bimoclomol 20 mg/kg daily
  effect on diabetic retinopathy induced pathological histological alterations: significantly improved
STZ diabetic Wistar rats; 20 mg/kg
  Improvement of nerve conduction velocity (%) motor (MNCV): 72,4%
  Improvement of nerve conduction velocity (%) sensor (SNCV): 66,9%

## [O-][n+]1cccc(C(Cl)=NOCC(O)C[N+]2([O-])CCCCC2)c1 (stereo not shown) [double N-oxide derivative of bimoclomol]
STZ diabetic Wistar rats; 5 mg/kg
  Improvement of nerve conduction velocity (%) motor (MNCV): 25,9* %
  Improvement of nerve conduction velocity (%) sensor (SNCV): 29,1** %
